{
  "source": "patent US20100282247A1",
  "about": "“TREATMENT OF PULMONARY DISORDERS WITH AEROSOLIZED MEDICAMENTS SUCH AS VANCOMYCIN” (Novartis AG, priority 2007, published 2010)",
  "key": {"[1]": {"settings": "in vivo", "excerpt": "One or more embodiments of the invention comprise systems and method for delivering relatively high concentrations of medicament without undue precipitation of the medicament in the delivery system. The on-vent adapter with the pattern of aerosol generation is designed to allow up to 90% of aerosol enter the artificial airway and allow 45-80% of dose to reach aerosol to the lungs. Hand Held adapter delivers inhaled mass of 75-90% with 40-55% of dose reaching the lungs as aerosol (based on AMIK phase II Scintigraphy.) Initially in vitro testing was showing precipitation of Vancomycin in powder form on the inspiratory filter."}, "[2]": {"test_system": "Gram-positive, pneumonia-causing bacteria", "experiment": "Reference MIC in tracheal aspirates (TA)", "format": "cell-based, Staph species", "settings": "locally in TA", "description": "The dose-response to aerosolized vancomycin, administered in accordance with one or more embodiments of devices, apparatus and/or methods of the present invention was evaluated, as was the ability to deliver a predefined target multiple of an MIC for Gram-positive bacteria causing pneumonia, including, Staph species, in the tracheal aspirates (TA). […] Thus the desired multiple is 128 μg/mL."}, "gram-positive bacteria": {"test_system": "gram-positive bacteria", "settings": "P<=0.05, cited from earlier work"}, "[3]": {"test_system": "vancomycin susceptable S. aureas", "settings": "estimated; cited from earlier work"}, "[4]": {"settings": "aerosolized versus systemic vancomycin, n=10, high suspicion for MRSA respiratory infection; cited from earlier work"}, "[5]": {"test_system": "vancomycin resistant S. aureas", "settings": "estimated; printed with \"or more\"; cited from earlier work"}, "[6]": {"test_system": "vancomycin intermediate S. aureas", "settings": "estimated; cited from earlier work"}, "S. aureus": {"test_system": "S. aureus", "settings": "lowered by CLSI; cited from earlier work"}, "[7]": {"settings": "parenterally administered; cited from earlier work"}},
  "data": [
    {"smiles": "NCC[C@H](O)C(=O)N[C@@H]1C[C@H](N)[C@@H](O[C@H]2O[C@H](CN)[C@@H](O)[C@H](O)[C@H]2O)[C@H](O)[C@H]1O[C@H]1O[C@H](CO)[C@@H](O)[C@H](N)[C@H]1O", "note": "[AMIK]", "values": [
      {"measurement": "dose reaching the lungs as aerosol", "setting": "[1]", "result": "40-55%"},
      {"measurement": "inhaled mass", "setting": "[1]", "result": "75-90%"}
    ]},
    {"smiles": "CN[C@H](CC(C)C)C(=O)N[C@H]1C(=O)N[C@@H](CC(N)=O)C(=O)N[C@H]2C(=O)N[C@H]3C(=O)N[C@H](C(=O)N[C@H](C(=O)O)c4cc(O)cc(O)c4-c4cc3ccc4O)[C@H](O)c3ccc(c(Cl)c3)Oc3cc2cc(c3O[C@@H]2O[C@H](CO)[C@@H](O)[C@H](O)[C@H]2O[C@H]2C[C@](C)(N)[C@H](O)[C@H](C)O2)Oc2ccc(cc2Cl)[C@H]1O", "note": "[vancomycin]", "values": [
      {"measurement": "reference MIC value", "setting": "[2]", "result": 32, "unit": "µg/mL"},
      {"measurement": "CDC-NNIS diagnostic criteria for ventilator-associated pneumonia (VAP)", "setting": "gram-positive bacteria; aerosolized vancomycin (n=14) and/or gentamicin-sulfate, placebo 75.0% to 78.6%", "result": "35.7% to 73.6%"},
      {"measurement": "WBC at Day 14", "setting": "gram-positive bacteria; versus placebo", "result": "lower"},
      {"measurement": "bacterial resistance", "setting": "gram-positive bacteria; versus placebo", "result": "reduced"},
      {"measurement": "clinical pulmonary infection score CPIS", "setting": "gram-positive bacteria; versus placebo", "result": "reduced"},
      {"measurement": "use of systemic antibiotics", "setting": "gram-positive bacteria; versus placebo", "result": "reduced"},
      {"measurement": "ventilator weaning", "setting": "gram-positive bacteria; versus placebo", "result": "increased"},
      {"measurement": "reference MIC", "setting": "[3]", "result": "2 to 4", "unit": "µg/mL"},
      {"measurement": "sputum vancomycin concentrations", "setting": "[4]", "result": "significantly increases"},
      {"measurement": "reference MIC", "setting": "[5]", "result": "16 to 32", "unit": "µg/mL"},
      {"measurement": "reference MIC", "setting": "[6]", "result": "8 to 16", "unit": "µg/mL"},
      {"measurement": "vancomycin breakpoint", "setting": "S. aureus", "result": 2, "unit": "µg/mL"},
      {"measurement": "levels in lung epithelial lining fluid as share of those seen in serum", "setting": "[7]", "result": "~14", "unit": "%"}
    ]}
  ]
}
